Reference: US20260000079A1, “COMPOSITIONS AND METHODS FOR MODULATING IMMUNITY IN PLANTS” (BOYCE THOMPSON INSTITUTE FOR PLANT RESEARCH, INC., priority 2019, published 2026)

Experiments:
[1] = test system: M. incognita J2 larvae; assay: J2 larvae touching roots of pretreated seedlings in PF-127 gel; format: in vivo, Meloidogyne incognita; conditions: 48 hours pretreatment
Description: FIG. 4A provides a schematic of the experimental designs for assessing activation of defense pathways and resistance to nematodes and bacteria. […] Bacterial growth was assayed 3 days post inoculation. Data are averages±s.d. (n=17). […] Arabidopsis seedlings were treated with buffer or the indicated concentrations of ascr #18 for 48 hours before inoculation with approximately 300 freshly hatched M. incognita J2 larvae. The numbers of root galls of infected plants were counted 6 weeks post inoculation. Data are averages±s.d. (n≥15). […] Arabidopsis seedlings were treated with the indicated concentrations of ascr #18 for 48 hours before transfer into 12-well plates containing Pluronic® F-127 gel with ˜200 freshly hatched M. incognita J2 larvae. Larvae touching root tips (FIG. 4D) or the whole area of roots (FIG. 4E) were counted at 6 hours post seedling transfer. Data are average±s.d. (n=12). […] Transcript levels were determined by qRT-PCR and plotted as relative fold-change compared to mock treated plants. Data are averages±s.d (n≥6). *P≤0.05; **P≤0.005; ***P≤0.0005; two-tailed t-test.
FIG. 6A provides a graph of the number of nematodes touching the root tips of Arabidopsis wildtype and acx1acx5 treated with 50 nM ascr #18 or ascr #9 for 48 hours before transfer into 12-well plates containing Pluronic® F-127 gel with ˜200 freshly hatched M. incognita J2 larvae. Larvae touching the terminal part of roots were counted at 6 hours after seedling transfer. Data are average±s.d. (n=12). FIG. 6B provides a schematic of a Petri dish as shown in the plate layout. […] Larvae in the indicated scoring areas were counted after 4 hours. […] FIG. 6D provides the attraction index for different concentrations of ascr #18, ascr #9, or ascr #18/ascr #9 mixtures measured using the layout shown in FIG. 6C. […]
In a second experiment, wildtype and acx1acx5 were treated with ascr #18 for 48 hours prior to moving seedlings to a PF-127 gel containing approximately 200 M. incognita second-stage larvae (J2) (FIG. 4A, 4D, 4E). J2 larvae touching the roots were counted at 6 hours post seedling transfer.

[2] = test system: Arabidopsis root exudates; assay: LC-MS of root exudates of ascr #18-treated Arabidopsis seedlings; format: in vivo, Arabidopsis thaliana
Description: Data are average±SEM (n=6), n.d.=not detected. […] Exudates from approximately 40 seedlings were collected in distilled water and pooled. Abundances of ascarosides are shown as the peak area, as measured by LC-MS. Data are average±SEM (n=3); n.d.=not detected. FIGS. 5C and 5D show the relative abundances of ascarosides in root exudates of eight-day old tomato seedlings treated with 10 nM (FIG. 5C) or 1000 nM (FIG. 5D) ascr #18 for 6 hours. Exudates from approximately 10 seedlings were collected in distilled water and pooled. Abundances of ascarosides are shown as the peak area, as measured by LC-MS. Data are average±SEM (n=3); n.d.=not detected. FIG. 5E provides the relative abundances of ascr #10, ascr #1, and ascr #9 in the growth media of eight-day old tomato seedlings supplemented with 1 μM ascr #18. Ten-gram media samples were collected at different time points over a 48 hour period for metabolome extraction. Abundances of ascarosides are shown as the peak area, as measured by LC-MS.
To test this possibility, root-secreted metabolites of ascr #18- and mock-treated Arabidopsis were compared (FIG. 5A). For this experiment, 10-day old Arabidopsis seedlings were treated in growth media supplemented with ascr #18 for 6 hours prior to collection of exudates from roots submerged in water. […] Analogous results were obtained in experiments with tomato roots (FIG. 5C, 5D).

Compound | effect on infection (J2 larvae touching root tips) ([1]; wildtype or acx1acx5, 50 nM) | relative abundance among root-excreted ascr #18 metabolites ([2]; Arabidopsis) | secretion of ascr #18 metabolites via roots ([2]; ascr #18-treated wildtype, 6 hours treatment) | effect on M. incognita behavior (J2 larvae touching roots) ([1]; wildtype or mutant, 1 μM) | numbers of J2 larvae touching the root tips or whole root area ([1]; wildtype, 50 nM, counted 6 hours post transfer) | ascarosides in root exudates of acx1acx5 ([2]; acx1acx5 seedlings, 10 nM ascr #18 for 6 hours)
C[C@H](CCC(=O)O)O[C@@H]1O[C@@H](C)[C@H](O)C[C@H]1O [ascr #9] | did not significantly reduce infection | most abundant | secretion | – | – | –
CC1O[C@@H](O[C@@H](C)CCCCCCCCC(=O)O)C(O)C[C@H]1O (stereo in doubt) [ascr #18, (10R)-(3′R,5′R-dihydroxy-6′S-methyl-(2H)-tetrahydropyran-2-yloxy)-undecanoic acid] | – | – | – | did not significantly affect | significantly reduced | larger amounts of residual ascr #18 than in wildtype
